Experimental data reported in patent US20260008760A1, “DIPEPTIDYL PEPTIDASE 1 INHIBITORS AND USES THEREOF” (Insmed Incorporated, priority 2024, published 2026).
Like-named read-outs stand apart in the source and are kept apart here.

How the values were obtained:
[1] = target: DPP1 in HL-60 cells (Homo sapiens, UniProt P53634); assay: DPP1 Cell IC50 assay; assay type: cell-based; parameters: host or cells: HL-60 cells; conditions: 60 min pre-incubation, H-Gly-Phe-AFC substrate, average of n runs
Description: Example 99. DPP1 Cell IC50 assay
HL-60 cells (ATCC; Manassas, VA) were maintained in RPMI-1640 supplemented with 20% heat-inactivated FBS and 1× Antibiotic Antimycotic (Cytiva; Marlborough, MA). Media was changed every three to four days and cells were not allowed to exceed 1×10^6 cells per mL. Prior to assay, cells were collected by centrifugation at 500 rcf for 3 minutes, resuspended in PBS and counted. Cells were diluted in PBS to a concentration of 5×10^5 live cells per mL and transferred to black 96-well plates for assay, 60 μL per well. Test articles were diluted in PBS plus 0.5% DMSO, and 20 μL was added to each assay well. Compound was allowed to pre-incubate with cells with gentle shaking at 100 rpm for 60 minutes at 37° C. in a cell culture incubator maintained at 5% CO2, after which 20 μL of 500 μM H-Gly-Phe-AFC substrate (MP Biomedicals; Solon, OH) was added to each well. Plates were returned to the incubator with shaking at 100 rpm for 30 minutes, after which fluorescence was measured at Excitation/Emission 400/505 nm. % Inhibition was calculated from RFU values compared to control cell wells that received only PBS plus 0.5% DMSO. IC50 values for each compound were calculated via the XLFit (IDBS Version 5.3.1.3) Add-On to Microsoft Excel using the four parameter fit equation y=(A+((B−A)/(1+((C/x)^D)))), which appears as equation number 205 (4 Parameter Logistic Model or Sigmoidal Dose-Response Model) in XLFit. IC50 was defined as the compound concentration at which 50% of enzyme activity was inhibited when compared to the no-compound control.

[2] = target: human DPP1 enzyme (Homo sapiens, UniProt P53634); assay: Human DPP1 Enzyme IC50 Assay; assay type: biochemical; parameters: was first proteolytically processed into its mature form using recombinant human cathepsin L; purchased R&D Systems
Description: Example 97. Human DPP1 Enzyme IC50 Assay
Recombinant human DPP1 enzyme (R&D Systems; Minneapolis, MN) was first proteolytically processed into its mature form using recombinant human cathepsin L (R&D Systems) in a buffer consisting of 20 mM citric acid pH 4.5, 150 mM NaCl, 1 mM EDTA and 10 mM DTT. Test articles were applied to activated human DPP1 enzyme in Assay Buffer (25 mM MES pH 6.0, 50 mM NaCl, 5 mM DTT) in a total reaction volume of 125 μL. 25 μL of compound in Assay Buffer plus 5% DMSO was first added to 50 μL of activated human DPP1 enzyme at a concentration of 1 ng/μL and allowed to pre-incubate for 10 minutes at 37° C. after which 50 μL of 1000 μM H-Gly-Arg-AMC substrate (Bachem; St. Torrance, CA) was added, giving final substrate concentration of 400 μM and a final DMSO concentration of 1%. Substrate cleavage was measured for 90 minutes at 37° C., with fluorescence at Excitation/Emission 350/450 nm measured every 5 minutes. DPP1 concentration was interpolated based on its activity relative to a standard curve of activated human recombinant DPP1 enzyme. IC50 values for each compound were calculated via the XLFit (IDBS Version 5.3.1.3) Add-On to Microsoft Excel using the four parameter fit equation y={A+[(B−A)]/[1+((C/x)^D)]}, which appears as equation number 205 (4 Parameter Logistic Model or Sigmoidal Dose-Response Model) in XLFit. Default constraints were used for each Parameter. IC50 was defined as the compound concentration at which 50% of enzyme activity was inhibited when compared to the no-compound control.

[3] = read-out: Avg. IC50 (DPP1 Cell IC50 value ranges)
[4] = activated recombinant human DPP1, 400 μM H-Gly-Arg-AMC, 10 minutes pre-incubation at 37° C., pH 6.0, average of n runs, read-out: Avg. IC50 (Human DPP1 enzyme IC50 value ranges)

Chain of DPP1 in HL-60 cells (P53634 25-463): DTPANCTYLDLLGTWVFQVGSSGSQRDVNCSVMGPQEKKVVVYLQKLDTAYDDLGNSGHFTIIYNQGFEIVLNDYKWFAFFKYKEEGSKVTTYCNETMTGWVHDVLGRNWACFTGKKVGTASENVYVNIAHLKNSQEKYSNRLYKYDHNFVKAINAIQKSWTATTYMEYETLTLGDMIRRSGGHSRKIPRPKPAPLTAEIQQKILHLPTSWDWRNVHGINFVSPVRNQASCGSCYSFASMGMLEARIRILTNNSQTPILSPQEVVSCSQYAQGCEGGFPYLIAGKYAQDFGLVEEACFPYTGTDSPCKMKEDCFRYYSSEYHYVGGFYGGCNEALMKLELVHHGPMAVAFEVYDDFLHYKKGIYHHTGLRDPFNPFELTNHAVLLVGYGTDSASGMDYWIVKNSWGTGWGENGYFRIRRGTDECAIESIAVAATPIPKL
Chain of human DPP1 enzyme (P53634 25-134 limits assumed): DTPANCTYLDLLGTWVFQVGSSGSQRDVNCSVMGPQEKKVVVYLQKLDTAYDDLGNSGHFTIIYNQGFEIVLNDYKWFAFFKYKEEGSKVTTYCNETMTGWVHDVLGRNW
Chain of human DPP1 enzyme (P53634 231-394 limits assumed): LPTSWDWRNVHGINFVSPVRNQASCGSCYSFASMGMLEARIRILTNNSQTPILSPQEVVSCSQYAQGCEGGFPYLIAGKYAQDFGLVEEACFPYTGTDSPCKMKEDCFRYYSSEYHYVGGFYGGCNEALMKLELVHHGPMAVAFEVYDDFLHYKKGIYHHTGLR
Chain of human DPP1 enzyme (P53634 395-463 limits assumed): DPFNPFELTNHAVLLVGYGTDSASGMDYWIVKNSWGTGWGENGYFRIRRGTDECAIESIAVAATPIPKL

Row | Compound | IC50 [1, 3] | IC50 [2, 4] | IC50 ([1]; Avg. IC50 (DPP1 Cell IC50 value ranges)) | IC50 [2]
1 | Cn1c(=O)ccc2ncc(-c3ccc(C[C@@H](C#N)NC(=O)[C@@H]4CNCCCO4)cc3)cc21 [Compound A18, (2S)—N-[(1S)-1-cyano-2-[4-(5-methyl-6-oxo-1,5-naphthyridin-3-yl)phenyl]ethyl]-1,4-oxazepane-2-carboxamide] | > 2.5 nM | > 15 nM |  | 
2 | CO[C@@H]1CNC[C@@H](C(=O)N[C@H](C#N)Cc2ccc(-c3cc4c(C)nc(C)cn4c3)cc2F)OC1 [Compound A88-A] | > 2.5 nM | > 15 nM |  | 
3 | COC1CNC[C@@H](C(=O)N[C@H](C#N)Cc2ccc(-c3ccc4c(F)nn(C)c4c3)cc2F)OC1 (stereo partly shown) [Compound A164] | < 1 nM | < 5 nM |  | 
4 | CCCCOCCn1c(=O)oc2ccc(-c3ccc(C[C@@H](C#N)NC(=O)[C@@H]4CNC(C)C(OC)CO4)c(F)c3)cc21 (stereo partly drawn) [Compound E1, (2S)—N-[(1S)-2-{4-[3-(2-butoxyethyl)-2-oxo-1,3-benzoxazol-5-yl]-2-fluorophenyl}-1-cyanoethyl]-6-methoxy-5-methyl-1,4-oxazepane-2-carboxamide] | 1 to 2.5 nM | < 5 nM |  | 
5 | C[C@@H]1NC[C@@H](C(=O)N[C@H](C#N)Cc2ccc(-c3ccc4c(c3)CCC(=O)N4C)cc2)OC[C@@H]1O [Compound A148] | > 2.5 nM | > 15 nM |  | 
6 | CO[C@@H]1CCNC[C@@H](C(=O)N[C@H](C#N)Cc2ccc(-c3ccc4c(n3)CCCN4)cc2F)OC1 [Compound A50, (2S,7R)—N-[(1S)-1-cyano-2-[2-fluoro-4-(5,6,7,8-tetrahydro-1,5-naphthyridin-2-yl)phenyl]ethyl]-7-methoxy-1,4-oxazocane-2-carboxamide] | 1 to 2.5 nM | < 5 nM |  | 
7 | N#C[C@H](Cc1ccc(-c2ccc3c(c2)C2(CCNCC2)C(=O)C3)cc1)NC(=O)[C@@H]1CNCCCO1 [Compound 22, (2S)—N-[(1S)-1-cyano-2-(4-{2-oxo-3H-spiro[indene-1,4′-piperidin]-6-yl}phenyl)ethyl]-1,4-oxazepane-2-carboxamide] | > 2.5 nM | 5 to 15 nM |  | 
8 | Cc1cn2cc(-c3cc4sc(C[C@H](C#N)NC(=O)[C@@H]5CNCCCCO5)cc4s3)cc2c(C)n1 (single isomer, unassigned) [Compound A31] | > 2.5 nM | > 15 nM |  | 
9 | N#C[C@H](Cc1ccc(-c2ccc3c(c2)C2(CCN(c4nccs4)CC2)SC3)cc1)NC(=O)[C@@H]1CNCCCO1 [Compound I16] | > 2.5 nM | > 15 nM |  | 
10 | CO[C@@H]1CCNC[C@@H](C(=O)NC(C#N)Cc2cnc(-c3ccc4c(n3)CCCN4)s2)OC1 (stereo partly drawn) [Compound A39, (2S,7R)—N-{1-cyano-2-[2-(5,6,7,8-tetrahydro-1,5-naphthyridin-2-yl)-1,3-thiazol-5-yl]ethyl}-7-methoxy-1,4-oxazocane-2-carboxamide] | > 2.5 nM | > 15 nM |  | 
11 | COC1CNC[C@@H](C(=O)N[C@H](C#N)Cc2cnc(-c3ccc4c(F)nn(C)c4c3)s2)OC1 (stereo partly shown) [Compound A169] | < 1 nM | < 5 nM |  | 
12 | CO[C@H]1CCO[C@H](C(=O)NC(C#N)Cc2cc3c(cc2F)-c2cc(C4COC4)c(F)cc2CO3)CNC1 (mixture of isomers) [Compound B15, (2S,6S)—N-{1-cyano-2-[2,8-difluoro-9-(oxetan-3-yl)-6H-benzo[c]chromen-3-yl]ethyl}-6-methoxy-1,4-oxazocane-2-carboxamide] | 1 to 2.5 nM | < 5 nM |  | 
13 | N#C[C@H](Cc1ccc(-c2ccc3c(c2)[C@@]2(CCN(C4COC4)C2)COC3)cc1)NC(=O)[C@@H]1CNCCCO1 [Compound I6] | > 2.5 nM | 5 to 15 nM |  | 
14 | N#C[C@H](Cc1ccc2c(c1)OCc1ccc(C3CCNC3)cc1-2)NC(=O)[C@@H]1CNCCCO1 (stereo partly drawn) [Compound B1, (2S)—N-[(1S)-1-cyano-2-[9-(pyrrolidin-3-yl)-6H-benzo[c]chromen-3-yl]ethyl]-1,4-oxazepane-2-carboxamide] |  |  | > 2.5 nM | > 15 nM
15 | C[C@@H]1NC[C@@H](C(=O)N[C@H](C#N)Cc2ccc(-c3ccc4c(F)nn(C)c4c3)cc2)OC[C@@H]1O [Compound A160] | 1 to 2.5 nM | 5 to 15 nM |  | 
16 | N#C[C@H](Cc1ccc(-c2nc3c(s2)CS(=O)(=O)CC3)cc1)NC(=O)[C@@H]1CNCCCO1 [Compound A6] | > 2.5 nM | > 15 nM |  | 
17 | CO[C@@H]1CCNC[C@@H](C(=O)N[C@H](C#N)Cc2ncc(-c3ccc4c(F)nn(C)c4c3)s2)OC1 [Compound A36, (2S,7R)—N-[(1S)-1-cyano-2-[5-(3-fluoro-1-methylindazol-6-yl)-1,3-thiazol-2-yl]ethyl]-7-methoxy-1,4-oxazocane-2-carboxamide] | > 2.5 nM | > 15 nM |  | 
18 | Cn1c(=O)oc2cc3c(cc21)-c1cc(F)c(C[C@H](C#N)NC(=O)[C@@H]2CNCCCO2)cc1OC3 [Compound C1-A] | > 2.5 nM | > 15 nM |  | 
19 | N#C[C@H](Cc1ccc(-c2ccc3c(c2)N(C(N)=O)CCC3)cc1)NC(=O)[C@@H]1CNCCCO1 [Compound A20, 7-{4-[(2S)-2-cyano-2-[(2S)-1,4-oxazepan-2-ylformamido]ethyl]phenyl}-3,4-dihydro-2H-quinoline-1-carboxamide] | > 2.5 nM | > 15 nM |  | 
20 | N#C[C@H](Cc1ccc(-c2ccc3c(c2)[C@@]2(CCCN(C4CCCCC4)C2)CS3)cc1)NC(=O)[C@@H]1CNCCCO1 [Compound I9] | > 2.5 nM | 5 to 15 nM |  | 
21 | CCc1sc(-c2ccc(C[C@@H](C#N)NC(=O)[C@@H]3CNCCCO3)cc2)nc1-c1cnn(C)c1 [Compound D8, (2S)—N-[(1S)-1-cyano-2-{4-[5-ethyl-4-(1-methylpyrazol-4-yl)-1,3-thiazol-2-yl]phenyl}ethyl]-1,4-oxazepane-2-carboxamide] | > 2.5 nM | > 15 nM |  | 
22 | Cc1cc2cc(-c3ccc(C[C@@H](C#N)NC(=O)[C@@H]4CNCCCO4)cc3)cn2c(C)n1 [Compound A57] | > 2.5 nM | > 15 nM |  | 
23 | N#C[C@H](Cc1ccc(-c2ccc(-c3nnc(N)s3)o2)cc1)NC(=O)[C@@H]1CNCCCO1 [Compound D1, (2S)—N-[(1S)-2-{4-[5-(5-amino-1,3,4-thiadiazol-2-yl)furan-2-yl]phenyl}-1-cyanoethyl]-1,4-oxazepane-2-carboxamide] | > 2.5 nM | > 15 nM |  | 
24 | CO[C@H]1CCO[C@H](C(=O)NC(C#N)Cc2cc3c(cc2F)-c2ccc(C#N)cc2CO3)CNC1 (single isomer, unassigned) [Compound B14] | > 2.5 nM | > 15 nM |  | 
25 | N#C[C@H](Cc1ccc(-c2ccc3c(c2)[C@]2(CCN(C#N)C2)SC3)cc1)NC(=O)[C@@H]1CNCCCO1 [Compound I18] | > 2.5 nM | > 15 nM |  | 
26 | CO[C@H]1CCO[C@H](C(=O)N[C@H](C#N)Cc2ccc(-c3cc4c(C)nc(C)cn4c3)cc2)CNC1 [Compound A42, (2S,6S)—N-[(1S)-1-cyano-2-(4-{1,3-dimethylpyrrolo[1,2-a]pyrazin-7-yl}phenyl)ethyl]-6-methoxy-1,4-oxazocane-2-carboxamide] | 1 to 2.5 nM | > 15 nM |  | 
27 | N#C[C@H](Cc1ccc(-c2ccc3c(c2)C2(CCN(C4CC4)CC2)SCC3)cc1)NC(=O)[C@@H]1CNCCCO1 [Compound I7] | > 2.5 nM | > 15 nM |  | 
28 | Cn1c(=O)oc2cc3c(cc21)-c1cc(F)c(C[C@@H](C#N)NC(=O)[C@@H]2CNCCCO2)cc1OC3 [Compound C1-B] | 1 to 2.5 nM | < 5 nM |  | 
29 | CO[C@H]1CCO[C@H](C(=O)N[C@H](C#N)Cc2cc3cc(-c4cc5c(C)nc(C)cn5c4)ccc3s2)CNC1 (single isomer, unassigned) [Compound A45] | > 2.5 nM | > 15 nM |  | 
